Test results taken from US10329302B2, “Bicyclic-fused heteroaryl or aryl compounds” (Pfizer Inc., priority 2014, dated 2019).
Like-named read-outs stand apart in the source and are kept apart here.

Columns and labels:
[1] = test system: R848-induced TNFα production by human peripheral blood mononuclear cells (PBMCs); assay: R848 Induced TNFα in Human PBMC Assay; assay type: cell-based; conditions: Homo sapiens, PBMC, 3 h, read-out: R848-induced TNFa PBMC IC50 (nM)
[2] = target: human IRAK4 FL (Full Length) (Homo sapiens (Human), UniProt Q9NWZ3); assay: IRAK4 Enzymatic DELFIA Assay, Protocol A; assay type: biochemical
[3] = human IRAK4 FL, 0.6 mM ATP (KM), read-out: IRAK4 DELFIA Protocol A IC50

Chain of human IRAK4 FL (Full Length) (Q9NWZ3 whole entry): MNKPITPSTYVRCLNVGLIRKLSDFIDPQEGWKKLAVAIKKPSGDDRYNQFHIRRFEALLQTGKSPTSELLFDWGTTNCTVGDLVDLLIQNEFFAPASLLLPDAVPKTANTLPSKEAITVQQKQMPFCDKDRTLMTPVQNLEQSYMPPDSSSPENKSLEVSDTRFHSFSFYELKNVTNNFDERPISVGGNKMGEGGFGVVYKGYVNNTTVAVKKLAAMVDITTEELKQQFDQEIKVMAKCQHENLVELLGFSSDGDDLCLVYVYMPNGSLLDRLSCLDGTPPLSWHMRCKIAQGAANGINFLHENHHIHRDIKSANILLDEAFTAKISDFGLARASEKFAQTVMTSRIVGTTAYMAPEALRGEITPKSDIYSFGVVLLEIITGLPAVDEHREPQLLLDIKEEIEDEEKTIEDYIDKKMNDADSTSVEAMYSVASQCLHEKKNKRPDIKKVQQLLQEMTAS

SMILES | IC50 [1] | IC50 [2, 3] | IC50 [2]
COc1cc2c(OC[C@H]3NC(=O)[C@@H]4[C@@H](CO)[C@@H]43)nccc2cc1C(N)=O [Example 327, 1-{[(1S,2S,5S)-6-(hydroxymethyl)-4-oxo-3-azabicyclo[3.1.0]hex-2-yl]methoxy}-7-methoxyisoquinoline-6-carboxamide] | 3310 nM | 20 nM | –
C=C[C@H]1CC(=O)N[C@@H]1COc1nccc2cc(C(N)=O)c(OC)cc12 [Example 329, 1-{[(2S,3R)-3-ethenyl-5-oxopyrrolidin-2-yl]methoxy}-7-methoxyisoquinoline-6-carboxamide] | 252 nM | 13 nM | –
COc1cc2c(OC[C@H]3NC(=O)CC34CC4)nccc2cc1C(N)=O [Example 330, 7-methoxy-1-{[(4S)-6-oxo-5-azaspiro[2.4]hept-4-yl]methoxy}isoquinoline-6-carboxamide] | 134 nM | 14 nM | –
COc1cc2c(OC[C@H]3NC(=O)[C@@H]4[C@@H](CF)[C@@H]43)ccnc2cc1C(N)=O [Example 333, 4-{[(1R,2S,5S)-6-(fluoromethyl)-4-oxo-3-azabicyclo[3.1.0]hex-2-yl]methoxy}-6-methoxyquinoline-7-carboxamide] | 182 nM | 0.3 nM | –
COc1cc2c(OC[C@H]3NC(=O)[C@H]4[C@@H]3[C@]4(C)F)nccc2cc1C(N)=O [Example 335, 1-{[(1S,2S,5R)-6-fluoro-6-methyl-4-oxo-3-azabicyclo[3.1.0]hex-2-yl]methoxy}-7-methoxyisoquinoline-6-carboxamide] | 746 nM | 4 nM | –
COc1cc2c(OC[C@H]3NC(=O)[C@H]4[C@@H]3[C@@]4(C)F)nccc2cc1C(N)=O [Example 336, 1-{[(1S,2S,5R)-6-fluoro-6-methyl-4-oxo-3-azabicyclo[3.1.0]hex-2-yl]methoxy}-7-methoxyisoquinoline-6-carboxamide] | 674 nM | 0.3 nM | –
CC[C@@H]1[C@H](F)C(=O)N[C@@H]1COc1nccc2cc(C(N)=O)c(OCCOC)cc12 [Example 339, 1-{[(2S,3S,4S)-3-ethyl-4-fluoro-5-oxopyrrolidin-2-yl]methoxy}-7-(2-methoxyethoxy)isoquinoline-6-carboxamide] | 269 nM | 90 nM | –
COC[C@@H]1CC(=O)N[C@@H]1COc1nccc2cc(C(N)=O)c(OC)cc12 [Example 340, 7-methoxy-1-{[(2S,3R)-3-(methoxymethyl)-5-oxopyrrolidin-2-yl]methoxy}isoquinoline-6-carboxamide] | 456 nM | 12 nM | –
CC[C@@H]1[C@H](F)C(=O)N[C@@H]1COc1ncnc2cc(C(N)=O)c(OC)cc12 [Example 341, 4-{[(2S,3S,4S)-3-ethyl-4-fluoro-5-oxopyrrolidin-2-yl]methoxy}-6-methoxyquinazoline-7-carboxamide] | 16 nM | 0.3 nM | –
CC[C@@H]1[C@H](OC)C(=O)N[C@@H]1COc1nccc2cc(C(N)=O)c(OC)cc12 [Example 342, 1-{[(2S,3S,4S)-3-ethyl-4-methoxy-5-oxopyrrolidin-2-yl]methoxy}-7-methoxyisoquinoline-6-carboxamide] | 2380 nM | 1000 nM | –
CC[C@H]1[C@@H](COc2nccc3cc(C(N)=O)c(OC)cc23)NC(=O)[C@@H]1OC [Example 343, 1-{[(2S,3S,4R)-3-ethyl-4-methoxy-5-oxopyrrolidin-2-yl]methoxy}-7-methoxyisoquinoline-6-carboxamide] | 408 nM | 41 nM | –
CC[C@H]1[C@@H](COc2nccc3cc(C(N)=O)c(OC)cc23)NC(=O)C1(F)F [Example 345, 1-{[(2S,3S)-3-ethyl-4,4-difluoro-5-oxopyrrolidin-2-yl]methoxy}-7-methoxyisoquinoline-6-carboxamide] | 1.6 nM | 0.2 nM | –
COC[C@H]1[C@@H](COc2nccc3cc(C(N)=O)c(OC)cc23)NC(=O)C1(F)F [Example 347, 1-{[(2S,3R)-4,4-difluoro-3-(methoxymethyl)-5-oxopyrrolidin-2-yl]methoxy}-7-methoxyisoquinoline-6-carboxamide] | 27 nM | 0.6 nM | –
COC[C@@H]1[C@H](F)C(=O)N[C@@H]1COc1nccc2cc(C(N)=O)c(OC)cc12 [Example 348, 1-{[(2S,3R,4S)-4-fluoro-3-(methoxymethyl)-5-oxopyrrolidin-2-yl]methoxy}-7-methoxyisoquinoline-6-carboxamide] | 42 nM | 0.7 nM | –
COc1cc2c(OC[C@H]3NC(=O)[C@@H](OC)[C@H]3C)nccc2cc1C(N)=O [Example 349, 7-methoxy-1-{[(2S,3S,4S)-4-methoxy-3-methyl-5-oxopyrrolidin-2-yl]methoxy}isoquinoline-6-carboxamide] | 9460 nM | 2960 nM | –
COc1cc2c(OC[C@H]3NC(=O)[C@H](OC)[C@H]3C)nccc2cc1C(N)=O [Example 350, 7-methoxy-1-{[(2S,3S,4R)-4-methoxy-3-methyl-5-oxopyrrolidin-2-yl]methoxy}isoquinoline-6-carboxamide] | 568 nM | 58 nM | –

SMILES | IC50 [1] | IC50 [2, 3] | IC50 [2]
COC[C@H]1[C@@H](COc2nccc3cc(C(N)=O)c(OC)cc23)NC(=O)[C@@H]1F [Example 351, 1-{[(2S,3R,4R)-4-fluoro-3-(methoxymethyl)-5-oxopyrrolidin-2-yl]methoxy}-7-methoxyisoquinoline-6-carboxamide] | 213 nM | 6.3 nM | –
CC[C@@H]1[C@H](O)C(=O)N[C@@H]1COc1nccc2cc(C(N)=O)c(OC)cc12 [Example 352, 1-{[(2S,3S,4S)-3-ethyl-4-hydroxy-5-oxopyrrolidin-2-yl]methoxy}-7-methoxyisoquinoline-6-carboxamide] | 557 nM | 3.3 nM | –
CC[C@H]1[C@@H](COc2nccc3cc(C(N)=O)c(OC)cc23)NC(=O)[C@@H]1O [Example 353, 1-{[(2S,3S,4R)-3-ethyl-4-hydroxy-5-oxopyrrolidin-2-yl]methoxy}-7-methoxyisoquinoline-6-carboxamide] | 20 nM | 0.5 nM | –
COc1cc2c(OC[C@H]3NC(=O)C[C@H]3CCF)nccc2cc1C(N)=O [Example 355, 1-{[(2S,3S)-3-(2-fluoroethyl)-5-oxopyrrolidin-2-yl]methoxy}-7-methoxyisoquinoline-6-carboxamide] | 33 nM | 1.7 nM | –
CC[C@@H]1[C@H](N)C(=O)N[C@@H]1COc1nccc2cc(C(N)=O)c(OC)cc12 [Example 356, 1-{[(2S,3R,4S)-4-amino-3-ethyl-5-oxopyrrolidin-2-yl]methoxy}-7-methoxyisoquinoline-6-carboxamide] | 594 nM | 115 nM | –
CC[C@H]1[C@@H](COc2nccc3cc(C(N)=O)c(OC)cc23)NC(=O)[C@@H]1N [Example 357, 1-{[(2S,3R,4R)-4-amino-3-ethyl-5-oxopyrrolidin-2-yl]methoxy}-7-methoxyisoquinoline-6-carboxamide] | 588 nM | 30 nM | –
CC[C@@H]1[C@H](F)C(=O)N[C@@H]1COc1nccc2cc(C(N)=O)c(OC(C)C)cc12 [Example 358, 1-{[(2S,3S,4S)-3-ethyl-4-fluoro-5-oxopyrrolidin-2-yl]methoxy}-7-(propan-2-yloxy)isoquinoline-6-carboxamide] | 1.3 nM | 0.4 nM | –
CCOc1cc2c(OC[C@H]3NC(=O)[C@@H](F)[C@H]3CC)nccc2cc1C(N)=O [Example 359, 7-ethoxy-1-{[(2S,3S,4S)-3-ethyl-4-fluoro-5-oxopyrrolidin-2-yl]methoxy}isoquinoline-6-carboxamide] | 3.9 nM | 0.4 nM | –
CC[C@@H]1[C@H](F)C(=O)N[C@@H]1COc1ncc(F)c2cc(C(N)=O)c(OC)cc12 [Example 360, 1-{[(2S,3S,4S)-3-ethyl-4-fluoro-5-oxopyrrolidin-2-yl]methoxy}-4-fluoro-7-methoxyisoquinoline-6-carboxamide] | 3.9 nM | 0.1 nM | –
CC[C@@H]1[C@H](F)C(=O)N[C@@H]1COc1nccc2cc(C(N)=O)c(OC)c(F)c12 [Example 361, 1-{[(2S,3S,4S)-3-ethyl-4-fluoro-5-oxopyrrolidin-2-yl]methoxy}-8-fluoro-7-methoxyisoquinoline-6-carboxamide] | 27 nM | 4.8 nM | –
CC[C@@H]1CC(=O)N[C@@H]1COc1ncc(F)c2cc(C(N)=O)c(OC)cc12 [Example 362, 1-{[(2S,3R)-3-ethyl-5-oxopyrrolidin-2-yl]methoxy}-4-fluoro-7-methoxyisoquinoline-6-carboxamide] | 28 nM | 1.1 nM | –
CC[C@@H]1CC(=O)N[C@@H]1COc1nccc2cc(C(N)=O)c(OC)c(F)c12 [Example 363, 1-{[(2S,3R)-3-ethyl-5-oxopyrrolidin-2-yl]methoxy}-8-fluoro-7-methoxyisoquinoline-6-carboxamide] | 110 nM | 11 nM | –
COc1cc2c(OC[C@H]3NC(=O)[C@@H]4[C@@H](C)[C@@H]43)ncc(F)c2cc1C(N)=O [Example 364, 4-fluoro-7-methoxy-1-{[(1S,2S,5R)-6-methyl-4-oxo-3-azabicyclo[3.1.0]hex-2-yl]methoxy}isoquinoline-6-carboxamide] | 145 nM | 16 nM | –
COc1c(C(N)=O)cc2ccnc(OC[C@H]3NC(=O)[C@@H]4[C@@H](C)[C@@H]43)c2c1F [Example 365, 8-fluoro-7-methoxy-1-{[(1S,2S,5R)-6-methyl-4-oxo-3-azabicyclo[3.1.0]hex-2-yl]methoxy}isoquinoline-6-carboxamide] | 724 nM | 187 nM | –
COc1cc2c(OC[C@H]3NC(=O)C[C@H]3CF)nccc2cc1C(N)=O [Example 366, 1-{[(2S,3R)-3-(fluoromethyl)-5-oxopyrrolidin-2-yl]methoxy}-7-methoxyisoquinoline-6-carboxamide] | 91 nM | – | 6.1 nM
COc1cc2c(OC[C@H]3NC(=O)[C@@H](F)[C@H]3CF)nccc2cc1C(N)=O [Example 367, 1-{[(2S,3R,4S)-4-fluoro-3-(fluoromethyl)-5-oxopyrrolidin-2-yl]methoxy}-7-methoxyisoquinoline-6-carboxamide] | 14 nM | 0.4 nM | –
